Assay results taken from patent US20240083872A1, “CYCLIC AMINE DERIVATIVES HAVING SEROTONIN RECEPTOR BINDING ACTIVITY” (Shionogi & Co., Ltd., priority 2020, published 2024).
Where two headings read alike, the source gives them in different places.

Legend:
[1] = target: human recombinant 5-HT2A receptor (Homo sapiens (Human), UniProt P28223); test: 5-HT2A receptor binding inhibition test ([3H]-Ketanserin); conditions: Jump-In HEK cell membrane
In short: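 HEK cell membranes expressing human recombinant receptor were incubated with [3H]-ketanserin near its Kd in Tris-HCl 50 mmol/L pH 7.4 buffer (0.1% BSA) for 1.5 h at 25° C, then filtered on GF/B. Non-specific binding was defined with […] serotonin; Ki came from dose-response curves.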

[2] = target: human recombinant 5-HT2C receptor (Homo sapiens (Human), UniProt P28335); test: 5-HT2C receptor binding inhibition test ([3H]-Mesulergine); conditions: Jump-In HEK cell membrane, [3H]-Mesulergine
Chain of human recombinant 5-HT2C receptor (P28335 33-458): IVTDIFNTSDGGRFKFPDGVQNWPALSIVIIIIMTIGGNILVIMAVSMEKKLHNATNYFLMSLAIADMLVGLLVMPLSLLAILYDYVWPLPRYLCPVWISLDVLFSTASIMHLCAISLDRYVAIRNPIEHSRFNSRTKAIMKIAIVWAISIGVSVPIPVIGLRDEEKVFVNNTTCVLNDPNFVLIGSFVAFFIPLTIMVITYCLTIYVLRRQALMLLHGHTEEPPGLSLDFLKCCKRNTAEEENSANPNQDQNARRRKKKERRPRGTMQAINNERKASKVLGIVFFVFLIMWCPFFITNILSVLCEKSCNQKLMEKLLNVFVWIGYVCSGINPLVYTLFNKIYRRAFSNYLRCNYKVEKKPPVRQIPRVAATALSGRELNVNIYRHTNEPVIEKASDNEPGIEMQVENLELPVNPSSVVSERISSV

Metabolic stability test = assay type: in vitro ADME; conditions: human hepatic microsomes, 0.5 μmol/L, 30 minutes, 37° C., NADPH (oxidative reaction)
Protocol: Test Example 6-2: Metabolic Stability Test
Using commercially available pooled human hepatic microsomes, a compound according to the present invention was reacted for a constant time, and a remaining rate was calculated by comparing a reacted sample and an unreacted sample, thereby, a degree of metabolism of the compound according to the present invention in liver was evaluated.
A reaction was performed (oxidative reaction) at 37° C. for 0 minutes or 30 minutes in the presence of 1 mmol/L NADPH in 0.2 mL of a buffer (50 mmol/L Tris-HCl pH 7.4, 150 mmol/L potassium chloride, 10 mmol/L magnesium chloride) containing 0.5 mg protein/mL of human hepatic microsomes. After the reaction, 70 μL of the reaction solution was added to 140 μL of a solution of methanol/acetonitrile=1/1 (v/v), mixed and centrifuged at 3000 rpm for 15 minutes. The compound according to the present invention in the supernatant was quantified by LC/MS/MS or Solid Phase Extraction (SPE)/MS, and a remaining rate of the compound according to the present invention after the reaction was calculated, letting a compound amount at 0 minute reaction time be 100%.

[3] = target: human ether-a-go-go related gene (hERG) channel (Homo sapiens (Human), UniProt Q12809); test: hERG test (FluxOR potassium channel assay, FLIPR); assay type: cell-based; conditions: CHO cells expressing hERG channel, thallium flux fluorescence
Chain of human ether-a-go-go related gene (hERG) channel (Q12809 whole entry): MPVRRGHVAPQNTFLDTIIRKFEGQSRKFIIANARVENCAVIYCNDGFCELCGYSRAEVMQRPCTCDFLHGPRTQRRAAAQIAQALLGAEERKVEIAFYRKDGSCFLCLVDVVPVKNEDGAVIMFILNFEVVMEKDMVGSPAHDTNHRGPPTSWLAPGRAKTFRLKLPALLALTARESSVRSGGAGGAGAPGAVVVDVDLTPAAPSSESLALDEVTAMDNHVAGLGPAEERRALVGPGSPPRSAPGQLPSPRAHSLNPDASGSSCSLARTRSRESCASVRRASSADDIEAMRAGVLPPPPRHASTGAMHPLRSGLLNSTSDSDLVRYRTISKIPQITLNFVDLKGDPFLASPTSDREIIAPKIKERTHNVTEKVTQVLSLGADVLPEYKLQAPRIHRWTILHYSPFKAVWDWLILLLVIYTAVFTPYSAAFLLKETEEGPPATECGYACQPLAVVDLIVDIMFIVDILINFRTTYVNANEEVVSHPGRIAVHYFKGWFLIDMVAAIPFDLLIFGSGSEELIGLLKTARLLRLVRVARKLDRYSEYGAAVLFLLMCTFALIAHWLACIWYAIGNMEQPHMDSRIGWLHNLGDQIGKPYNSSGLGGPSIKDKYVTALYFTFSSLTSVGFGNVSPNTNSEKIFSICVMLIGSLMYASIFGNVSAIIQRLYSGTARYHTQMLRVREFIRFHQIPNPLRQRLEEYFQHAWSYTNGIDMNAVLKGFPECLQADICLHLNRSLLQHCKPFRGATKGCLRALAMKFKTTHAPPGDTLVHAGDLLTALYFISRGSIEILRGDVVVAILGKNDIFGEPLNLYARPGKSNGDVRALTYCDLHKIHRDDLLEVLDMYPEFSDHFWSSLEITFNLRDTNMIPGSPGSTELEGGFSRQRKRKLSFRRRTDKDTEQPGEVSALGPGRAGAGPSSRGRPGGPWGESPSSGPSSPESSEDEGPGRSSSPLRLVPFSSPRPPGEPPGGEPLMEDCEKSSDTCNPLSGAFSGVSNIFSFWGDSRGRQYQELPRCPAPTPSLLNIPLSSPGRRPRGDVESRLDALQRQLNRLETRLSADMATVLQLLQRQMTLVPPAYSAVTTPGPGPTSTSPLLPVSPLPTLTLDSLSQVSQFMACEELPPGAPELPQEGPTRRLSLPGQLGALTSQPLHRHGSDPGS
Protocol: Test Example 3-2: hERG Test
For the purpose of evaluating risk of an electrocardiogram QT interval prolongation of the compound of the present invention, effects of the compound were studied by evaluating the activity of potassium channel using CHO cells expressing human ether-a-go-go related gene (hERG) channel.
Evaluation was performed using a FluxORII Green Potassium IonCgannel Assay kit (Invitrogen: Molecular Probes).
Cells were seeded in a 384-assay plate (8000 cells/well/40 μL) and incubated (37° C., 5% CO2) overnight. After replacing the medium with a Wash buffer (1×HBSS, 20 mM HEPES) with a microplate washer, a fluorescent indicator was added to the medium and allowed to incubate (37° C., 5% CO2) for 1 hour for incorporation of the fluorescent indicator into cells.
A cell plate was placed on a cell-based kinetic assay system FLIPR (Molecular Devices, LLC.), and the compound was added to the cells so as to have a desired concentration and reacted for 10 minutes. When a mixed solution of potassium and thallium as a stimulator was added thereto, the potassium channel was opened, and thallium that flowed into the cells bound to the fluorescent indicator, so that the intracellular fluorescence signal increased, and the potassium channel current was detected as a fluorescence signal. […] Then, the inhibition rate was calculated from the signal intensity at each concentration. IC50 was calculated from the inhibition rate at each concentration.

[4] = read-out: human serotonin 5-HT2A receptor binding activity, Ki value
[5] = read-out: human serotonin 5-HT2C receptor binding inhibitory activity, Ki value

Chain of human recombinant 5-HT2A receptor (P28223 whole entry): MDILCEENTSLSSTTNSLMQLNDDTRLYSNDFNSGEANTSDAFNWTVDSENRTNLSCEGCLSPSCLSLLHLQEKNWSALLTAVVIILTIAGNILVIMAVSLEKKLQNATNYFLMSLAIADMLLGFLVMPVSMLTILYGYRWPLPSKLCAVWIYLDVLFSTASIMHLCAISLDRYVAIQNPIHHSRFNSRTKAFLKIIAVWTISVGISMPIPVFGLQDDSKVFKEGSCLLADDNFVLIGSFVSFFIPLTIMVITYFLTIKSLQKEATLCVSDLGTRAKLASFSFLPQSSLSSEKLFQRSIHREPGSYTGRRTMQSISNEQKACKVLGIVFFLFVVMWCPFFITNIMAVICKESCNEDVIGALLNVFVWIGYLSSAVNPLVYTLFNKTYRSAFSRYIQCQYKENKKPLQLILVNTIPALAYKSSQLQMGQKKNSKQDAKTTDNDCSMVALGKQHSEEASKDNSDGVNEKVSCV

SMILES | Ki ([1]; read-out: h-5-HT2A Ki) | Ki ([2]; read-out: h-5-HT2C Ki) | remaining rate of the compound (Metabolic stability test) | Ki [1, 4] | Ki [2, 5] | IC50 [3]
CC(C)COc1ccc(CN(Cc2ccc(F)cn2)C(=O)NC2CCN(C)CC2)cc1 [Compound I-016] | < 0.01 µM | < 0.01 µM | 99.6% | – | – | –
CC(C)COc1ccc(CN(Cc2ccn(C)n2)C(=O)N[C@H]2CCNCC23CC3)cc1 [Compound I-028] | < 0.01 µM | < 0.01 µM | 90.2% | – | – | –
CC(C)COc1ccc(CN(Cc2ccn(C)n2)C(=O)NC2CCN(C)CC2)cc1 [Compound I-043] | – | – | 85.0% | 0.00214 µM | 0.00307 µM | –
Cc1nc(CN(Cc2ccc(OCC(C)C)cc2)C(=O)NC2CCN(C)CC2)co1 [Compound I-077] | < 0.01 µM | < 0.01 µM | 85.3% | – | – | –
Cc1nc(CN(Cc2ccc(OCC(C)C)cc2)C(=O)OC2CCN(C)CC2)co1 [Compound I-081] | < 0.01 µM | < 0.01 µM | – | – | – | > 52 µM
CC(C)COc1ccc(CN(Cc2ccn(C)n2)C(=O)OC2CCN(C)CC2)cc1 [Compound I-082] | 0.01 to 0.1 µM | 0.01 to 0.1 µM | – | – | – | > 52 µM
Cc1cc(CN(Cc2ccc(OCC(C)C)cc2)C(=O)OC2CCN(C)CC2)nn1C [Compound I-083] | 0.01 to 0.1 µM | – | – | – | – | > 52 µM
CC(C)COc1ccc(CN(Cc2cnn(C)n2)C(=O)OC2CCN(C)CC2)cc1 [Compound I-084] | – | – | – | 0.00261 µM | 0.00578 µM | > 52 µM
CCCCOc1ccc(CN(Cc2coc(C)n2)C(=O)NC2CCN(C)CC2)cc1 [Compound I-086] | – | – | 75.5% | 0.000503 µM | 0.000241 µM | –
Cc1nc(CN(Cc2ccc(OCC(F)(F)C(F)(F)F)cc2)C(=O)NC2CCN(C)CC2)co1 [Compound I-088] | < 0.01 µM | < 0.01 µM | 80.0% | – | – | –
CCCCOc1ccc(CN(Cc2coc(C)n2)C(=O)CC2CCN(C)CC2)cc1 [Compound I-099] | < 0.01 µM | < 0.01 µM | – | – | – | 46.8 µM
CCCCOc1ccc(CN(Cc2cnn(C)n2)C(=O)NC2CCN(C)CC2)c(F)c1 [Compound I-102] | – | – | 97.3% | 0.000642 µM | 0.000412 µM | –
